Measured values published in US20250388574A1, “HETEROCYCLIC COMPOUNDS AS TRIGGERING RECEPTOR EXPRESSED ON MYELOID CELLS 2 AGONISTS AND METHODS OF USE” (AMGEN INC., priority 2020, published 2025).

Biological target: hTREM2 (Homo sapiens, UniProt Q9NZC2)
Assay: Phospho-Syk AlphaScreen/AlphaLISA assay in TREM2 and DAP12 overexpressing HEK293 cells (Example A1)
Type: cell-based
Parameters: expressed in transfected cells
Details: HEK293 cells; for EC50: read-out: hTREM2 EC50
Method: Pharmacological measurements of TREM2 signaling through DAP12 were made with TREM2 and DAP12 overexpressing HEK293 cells stable cell lines that had been single-cell cloned (“TREM2/DAP12-HEK”). The readout of the TREM2 signaling utilized Perkin Elmer AlphaScreen/AlphaLISA technology monitoring the phosphorylation levels of the Syk kinase. TREM2/DAP12-HEK cell lines were cultured in DMEM-F12 (Corning 10-092-CM) supplemented with 1× Penicillin/Streptomycin (Corning 30-002-CI), 1× GlutaMAX (Gibco 35050-061), and 10% Fetal Bovine Serum (Life Technologies 10099) referred to as “HEK Culture Medium”. Suspensions of TREM2/DAP12-HEK cells were prepared in HEK Culture Medium and dispensed into 384-well poly-D-lysine coated microplates (Corning 354661) at a density of 20,000 cells/well using a Multidrop Combi peristaltic microplate dispenser (Thermo), 25 uL volume of cell suspension/well. Plates containing cells were then incubated for 20 hours in a humidified cell culture incubator at 37° C. with 5% CO2 (Thermo). […] Assay Buffer contained diluted test articles (in 1% final DMSO concentration for compounds) or 100 nM anti-human/mouse TREM2 antibody (R&D Systems MAB17291) as a positive control, 100 nM or rat IgG2B isotype Ab as a negative control (R&D Systems MAB0061). Incubated the plates with test articles and controls for 45 minutes at room temperature and then aspirated/removed the medium from each well of the plates. Used a Multidrop Combi peristaltic liquid handler (Thermo) to dispense 15 uL/well of “Cell Lysis Immunoassay Buffer”. The Cell Lysis Immunoassay Buffer contained M-PER Mammalian Protein Extraction Reagent (Pierce/ThermoFisher 78505), 1× Halt Phosphatase Inhibitor Cocktail (ThermoFisher #78427), 0.1875 nM anti-phospho-Syk ([…]/526) ([…]) rabbit mAb (Cell Signaling Technologies catalog #2710), and 1.5 nM biotinylated Mouse anti-human Syk (4D10) antibody (BD Biosciences, catalog #624008). Incubated plates for 1 hour at room temperature after the addition of the Cell Lysis Immunoassay Buffer. Used the Multidrop Combi liquid handler to dispense 15 μL of AlphaScreen Acceptor Bead Solution containing 7.5 μg/mL anti-rabbit IgG (Fc specific) AlphaLISA Acceptor Beads (Perkin Elmer A[…]) in 1× Immunoassay buffer (Perkin Elmer A[…]) to each well of the microplates. Incubated plates for 2 hours at room temperature. Following the incubation with the AlphaLISA Acceptor Bead Solution, used a Multidrop Combi liquid handler (Thermo) to dispense 15 μL of AlphaScreen Donor Bead Solution containing 30 μg/mL of AlphaScreen Streptavidin Donor beads (Perkin Elmer 6760002B) in 1× Immunoassay buffer (Perkin Elmer A[…]) to each well of the microplates. Incubated microplates for 2 hours protected from light sources as the AlphaScreen reagents are light sensitive. Once the final incubation was completed, acquired AlphaScreen signal from the donor and acceptor beads using an Envision high throughput multi-modal microplate reader (Perkin Elmer) calibrated to the plate type with the AlphaScreen mirror and filter-set in 384-well mode, 680 nanometer excitation wavelength. The total measurement time per well was 550 milliseconds with a 180 millisecond excitation time. After reading the AlphaScreen signal for each well of the microplates, on a plate-by-plate basis, each raw test article well value (x) was normalized to a Percent of Control (“POC”) value using the following formula: […] Each plate contained 12 of each type of control wells that were used to generate the mean values. For concentration response curve analysis with test articles tested at various concentrations, the % of activation values were analyzed with 4 Parameter Logistic or Sigmoidal Dose-Response Models using GeneData Screener (GeneData, AG) or GraphPad Prism 7 (Graphpad Software, Inc.). […] This assay may be used to test any of the compounds described herein to assess and characterize a compound's ability to act as an agonist of TREM2.

Chain of hTREM2 (Q9NZC2 19-230): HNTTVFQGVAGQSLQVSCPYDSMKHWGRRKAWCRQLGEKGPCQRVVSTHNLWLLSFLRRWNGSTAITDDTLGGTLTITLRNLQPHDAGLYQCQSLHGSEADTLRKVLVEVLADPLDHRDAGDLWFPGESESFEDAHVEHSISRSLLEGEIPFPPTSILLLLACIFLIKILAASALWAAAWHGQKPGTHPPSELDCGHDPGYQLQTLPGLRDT
Chain of hTREM2 (O43914 22-113 partner): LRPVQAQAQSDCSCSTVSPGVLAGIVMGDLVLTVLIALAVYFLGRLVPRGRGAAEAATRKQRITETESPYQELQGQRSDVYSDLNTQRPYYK

Row | Molecule | Emax | EC50 [nM]
1 | Cn1cc([C@H]2CN(c3cc4nc(C(F)(F)F)n(C)c(=O)c4c(-c4ccc(Cl)cc4F)n3)CCO2)cn1 [Example 143, 5-(4-chloro-2-fluorophenyl)-3-methyl-7-((2S)-2-(1-methyl-1H-pyrazol-4-yl)-4-morpholinyl)-2-(trifluoromethyl)pyrido[4,3-d]pyrimidin-4(3H)-one] | ++++ (Emax>300) | 50 to 500
2 | Cc1nc2cc(N3C[C@H](C)O[C@@H](C4CC4)C3)nc(-c3ccc(Cl)cc3F)c2c(=O)n1C (single isomer, unassigned) [Example 35] | +++ (Emax>200 and ≤300) | 500 to 3000
3 | Cc1nc2cc(N3CCO[C@H](c4nccs4)C3)nc(-c3ccc(Cl)cc3F)c2c(=O)n1C [Example 198, (S)-5-(4-chloro-2-fluorophenyl)-2,3-dimethyl-7-(2-(thiazol-2-yl)morpholino)pyrido[4,3-d]pyrimidin-4(3H)-one] | ++++ (Emax>300) | 500 to 3000
4 | COc1ncnc2c1CN(c1cc3nc(C)n(C)c(=O)c3c(-c3ccc(Cl)cc3F)n1)CC2 [Example 116, 5′-(4-chloro-2-fluorophenyl)-4-methoxy-2′,3′-dimethyl-7,8-dihydro-5H-[6,7′-bipyrido[4,3-d]pyrimidin]-4′(3′H)-one] | ++ (Emax>100 and ≤200) | 50 to 500
5 | Cc1nc2cc(N3CCO[C@H](c4ccc(OCC(F)(F)F)nc4)C3)nc(-c3ccc(Cl)cc3F)c2c(=O)n1C [Example 235, (R)-5-(4-chloro-2-fluorophenyl)-2,3-dimethyl-7-(2-(6-(2,2,2-trifluoroethoxy)pyridin-3-yl)morpholino)pyrido[4,3-d]pyrimidin-4(3H)-one] | ++++ (Emax>300) | 500 to 3000
6 | Cc1nc2cc(N3CCC[C@@H](c4cn[nH]c4)C3)nc(-c3ccc(Cl)cc3F)c2c(=O)n1C (single isomer, unassigned) [Example 107] | ++++ (Emax>300) | < 50
7 | COc1cc([C@@H]2C[C@@H](c3cc4nc(C)n(C)c(=O)c4c(-c4ccc(Cl)cc4F)n3)CCO2)ccn1 (single isomer, unassigned) [Example 175] | +++ (Emax>200 and ≤300) | 50 to 500
8 | CCCn1c(C)nc2cc(N3CCO[C@@H](C(F)F)C3)nc(-c3ccc(Cl)cc3F)c2c1=O [Example 156, 5-(4-chloro-2-fluorophenyl)-7-((2R)-2-(difluoromethyl)-4-morpholinyl)-2-methyl-3-propylpyrido[4,3-d]pyrimidin-4(3H)-one] | ++++ (Emax>300) | 500 to 3000
9 | Cc1nc2cc(N3CCO[C@@H](c4cnn(CCF)c4)C3)nc(-c3ccc(Cl)cc3F)c2c(=O)n1C [Example 128, 5-(4-chloro-2-fluorophenyl)-7-((2S)-2-(1-(2-fluoroethyl)-1H-pyrazol-4-yl)-4-morpholinyl)-2,3-dimethylpyrido[4,3-d]pyrimidin-4(3H)-one] | +++ (Emax>200 and ≤300) | < 50
10 | COc1cc([C@H]2CN(c3cc4nc(C)n(C)c(=O)c4c(-c4ccc(Cl)cc4F)n3)CCO2)ccn1 (single isomer, unassigned) [Example 82] | ++++ (Emax>300) | < 50
11 | Cc1nc2cc(N3CCOC(c4ccc(C#N)cc4)C3)nc(-c3ccc(Cl)cc3F)c2c(=O)n1C (stereo not drawn) [Example 90, 4-(4-(5-(4-chloro-2-fluorophenyl)-2,3-dimethyl-4-oxo-3,4-dihydropyrido [4,3-d]pyrimidin-7-yl)-2-morpholinyl)benzonitrile] | ++++ (Emax>300) | 50 to 500
12 | Cc1nc2cc(N3CCO[C@@H](c4cnn(C)c4)C3)nc(-c3ccc(Cl)cn3)c2c(=O)n1C [Example 212, (S)-5-(5-chloropyridin-2-yl)-2,3-dimethyl-7-(2-(1-methyl-1H-pyrazol-4-yl)morpholino)pyrido[4,3-d]pyrimidin-4(3H)-one] | ++++ (Emax>300) | 3000 to 100000
13 | Cc1nc2cc(N3CCC[C@H](c4ccccc4)C3)nc(-c3ccc(Cl)cc3F)c2c(=O)n1C [Example 213, (R)-5-(4-chloro-2-fluorophenyl)-2,3-dimethyl-7-(3-phenylpiperidin-1-yl)pyrido[4,3-d]pyrimidin-4(3H)-one] | ++++ (Emax>300) | 3000 to 100000
14 | Cc1nc2cc(N3CCO[C@H](c4cnn(C)c4)C3)cc(-c3ccc(Cl)cc3F)c2c(=O)n1C [Example 4, 5-(4-chloro-2-fluorophenyl)-2,3-dimethyl-7-((2R)-2-(1-methyl-1H-pyrazol-4-yl)-4-morpholinyl)-4(3H)-quinazolinone] | +++ (Emax>200 and ≤300) | 500 to 3000
15 | Cc1nc2cc(N3CCOC(c4cnn(C)c4)C3)cc(-c3ncc(Cl)cc3F)c2c(=O)n1C (stereo not drawn) [Example 15, 5-(5-chloro-3-fluoro-2-pyridinyl)-2,3-dimethyl-7-(2-(1-methyl-1H-pyrazol-4-yl)-4-morpholinyl)-4(3H)-quinazolinone] | ++++ (Emax>300) | 500 to 3000
16 | CCn1c(C)nc2cc(N3CCO[C@@H](c4ccnc(C)c4)C3)nc(-c3ccc(Cl)cc3F)c2c1=O [Example 149, 5-(4-chloro-2-fluorophenyl)-3-ethyl-2-methyl-7-((2S)-2-(2-methyl-4-pyridinyl)-4-morpholinyl)pyrido[4,3-d]pyrimidin-4(3H)-one] | +++ (Emax>200 and ≤300) | < 50
17 | Cc1nnc([C@H]2CN(c3cc4nc(C)n(C)c(=O)c4c(-c4ccc(Cl)cc4F)n3)CCO2)o1 (single isomer, unassigned) [Example 59] | +++ (Emax>200 and ≤300) | 50 to 500
18 | CCn1c(C)nc2cc(N3CCO[C@H](c4noc(C)n4)C3)nc(-c3ccc(Cl)cc3F)c2c1=O [Example 264, (S)-5-(4-chloro-2-fluorophenyl)-3-ethyl-2-methyl-7-(2-(5-methyl-1,2,4-oxadiazol-3-yl)morpholino)pyrido[4,3-d]pyrimidin-4(3H)-one] | +++ (Emax>200 and ≤300) | 50 to 500
19 | ethyl (2S,4S)-4-(5-(4-chloro-2-fluorophenyl)-2,3-dimethyl-4-oxo-3,4-dihydropyrido[4,3-d]pyrimidin-7-yl)tetrahydro-2H-pyran-2-carboxylate and ethyl (2R,4R)-4-(5-(4-chloro-2-fluorophenyl)-2,3-dimethyl-4-oxo-3,4-dihydropyrido[4,3-d]pyrimidin-7-yl)tetrahydro-2H-pyran-2-carboxylate [Example 168] | +++ (Emax>200 and ≤300) | 3000 to 100000
20 | Cc1nc2cc(N3CCO[C@H](c4cnn(C)c4)C3)cc(-c3ccc(Cl)cc3F)c2c(=O)n1C [Example 221, (R)-5-(4-chloro-2-fluorophenyl)-2,3-dimethyl-7-(2-(1-methyl-1H-pyrazol-4-yl)morpholino)quinazolin-4(3H)-one] | ++++ (Emax>300) | 50 to 500
21 | Cc1nc2cc(N3CCO[C@H](c4cnn(C)c4)C3)nc(-c3ncc(Cl)cc3F)c2c(=O)n1C [Example 217, (R)-5-(5-chloro-3-fluoropyridin-2-yl)-2,3-dimethyl-7-(2-(1-methyl-1H-pyrazol-4-yl)morpholino)pyrido[4,3-d]pyrimidin-4(3H)-one] | +++ (Emax>200 and ≤300) | 3000 to 100000
